Drawing on patent publication US20240043404A1 (AbbVie Inc., priority 2009, published 2024), this text covers EC50 for 18 compounds.

A value given as a limit tells only on which side of the number the result lay.

This test deals with RS4;11 cells. Description: RS4;11 cell viability assay (CellTiter Glo).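 Also: acute lymphoblastic leukemia line RS4,11, EC50 derived from percentage of viable cells after treatment relative to untreated controls, cell killing taken as a measure of Bcl-2 inhibition.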 In kind it is cell-based, human. As to conditions: Homo sapiens, RS4-11, 48 h, 50,000 cells per well, 10% human serum, 48 hours; read-out: RS4; 11 EC50 Values. (ATP-based viability assays read luminescence as a measure of living cells.)
Protocol: The acute lymphoblastic leukemia (ALL) cell line RS4;11 was used as the primary human cell line to assess the cellular activity of Bcl-2 selective agents in vitro and their efficacy in vivo.
Cell cytotoxicity EC50 values were assessed using CellTiter Glo (Promega) according to the manufacturer's recommendations. The EC50 values were determined as a percentage of viable cells following treatment compared to the untreated control cells.
With `CC(=O)N1CCC(CNc2ccc(S(=O)(=O)NC(=O)c3ccc(N4CCN(CC5=C(c6ccc(Cl)cc6)CC(C)(C)CC5)CC4)cc3Oc3cnc4[nH]ccc4c3)cc2[N+](=O)[O-])C1` (stereo not drawn) [Example 153, N-[(4-{[(1-acetylpyrrolidin-3-yl)methyl]amino}-3-nitrophenyl)sulfonyl]-4-(4-{[2-(4-chlorophenyl)-4,4-dimethylcyclohex-1-en-1-yl]methyl}piperazin-1-yl)-2-(1H-pyrrolo[2,3-b]pyridin-5-yloxy)benzamide], the EC50 was 17.2 nM.
The result for `CC1(C)CCC(CN2CCN(c3ccc(C(=O)NS(=O)(=O)c4ccc(N[C@H]5CCN(CCF)C5)c([N+](=O)[O-])c4)c(Oc4cnc5[nH]ccc5c4)c3)CC2)=C(c2ccc(Cl)cc2)C1` [Example 181, 4-(4-{[2-(4-chlorophenyl)-4,4-dimethylcyclohex-1-en-1-yl]methyl}piperazin-1-yl)-N-[(4-{[(3S)-1-(2-fluoroethyl)pyrrolidin-3-yl]amino}-3-nitrophenyl)sulfonyl]-2-(1H-pyrrolo[2,3-b]pyridin-5-yloxy)benzamide] reads 106 nM; that for `CO[C@H]1CC[C@@H](CNc2ccc(S(=O)(=O)NC(=O)c3ccc(N4CCN(CC5=C(c6ccc(Cl)cc6)CC(C)(C)OC5)CC4)cc3Oc3cnc4[nH]ccc4c3)cc2[N+](=O)[O-])CC1` [Example 72, Cis-4-(4-{[4-(4-chlorophenyl)-6,6-dimethyl-5,6-dihydro-2H-pyran-3-yl]methyl}piperazin-1-yl)-N-[(4-{[(4-methoxycyclohexyl)methyl]amino}-3-nitrophenyl)sulfonyl]-2-(1H-pyrrolo[2,3-b]pyridin-5-yloxy)benzamide], 7.51 nM; that for `CC1(C)CCC(CN2CCN(c3ccc(C(=O)NS(=O)(=O)c4ccc(OCC5(F)CCOCC5)c(S(=O)(=O)C(F)(F)F)c4)c(Oc4cnc5[nH]ccc5c4)c3)CC2)=C(c2ccc(Cl)cc2)C1` [Example 220, 4-(4-{[2-(4-chlorophenyl)-4,4-dimethylcyclohex-1-en-1-yl]methyl}piperazin-1-yl)-N-({4-[(4-fluorotetrahydro-2H-pyran-4-yl)methoxy]-3-[(trifluoromethyl)sulfonyl]phenyl}sulfonyl)-2-(1H-pyrrolo[2,3-b]pyridin-5-yloxy)benzamide], over 1000 nM.
The result for `CC1(C)CCC(CN2CCN(c3ccc(C(=O)NS(=O)(=O)c4cnc(NCC5CCOCC5)c([N+](=O)[O-])c4)c(Oc4cnc5[nH]ccc5c4)c3)CC2)=C(c2ccc(Cl)cc2)C1` [Example 364, 4-(4-{[2-(4-chlorophenyl)-4,4-dimethylcyclohex-1-en-1-yl]methyl}piperazin-1-yl)-N-({5-nitro-6-[(tetrahydro-2H-pyran-4-ylmethyl)amino]pyridin-3-yl}sulfonyl)-2-(1H-pyrrolo[2,3-b]pyridin-5-yloxy)benzamide] reads 11.2 nM; that for `CN1CCC(CNc2ccc(S(=O)(=O)NC(=O)c3ccc(N4CCN(CC5=C(c6ccc(Cl)cc6)CC(C)(C)CC5)CC4)cc3Oc3cnc4[nH]ccc4c3)cc2[N+](=O)[O-])CC1` [Example 65, 4-(4-{[2-(4-chlorophenyl)-4,4-dimethylcyclohex-1-en-1-yl]methyl}piperazin-1-yl)-N-[(4-{[(1-methylpiperidin-4-yl)methyl]amino}-3-nitrophenyl)sulfonyl]-2-(1H-pyrrolo[2,3-b]pyridin-5-yloxy)benzamide], 0.25 nM.
For the compound `CC1(C)CCC(CN2CCN(c3ccc(C(=O)NS(=O)(=O)c4cnc(OCC5(F)CCOCC5)c(Cl)c4)c(Oc4cnc5[nH]ccc5c4)c3)CC2)=C(c2ccc(Cl)cc2)C1` [Example 96, N-({5-chloro-6-[(4-fluorotetrahydro-2H-pyran-4-yl)methoxy]pyridin-3-yl}sulfonyl)-4-(4-{[2-(4-chlorophenyl)-4,4-dimethylcyclohex-1-en-1-yl]methyl}piperazin-1-yl)-2-(1H-pyrrolo[2,3-b]pyridin-5-yloxy)benzamide], the EC50 was determined as 43.6 nM.
The result for `CN1CCN(Nc2ccc(S(=O)(=O)NC(=O)c3ccc(N4CCN(CC5=C(c6ccc(Cl)cc6)CC(C)(C)OC5)CC4)cc3Oc3cnc4[nH]ccc4c3)cc2[N+](=O)[O-])CC1` [Example 67, 4-(4-{[4-(4-chlorophenyl)-6,6-dimethyl-5,6-dihydro-2H-pyran-3-yl]methyl}piperazin-1-yl)-N-({4-[(4-methylpiperazin-1-yl)amino]-3-nitrophenyl}sulfonyl)-2-(1H-pyrrolo[2,3-b]pyridin-5-yloxy)benzamide] reads 49.5 nM; that for `CC1(C)CCC(CN2CCN(c3ccc(C(=O)NS(=O)(=O)c4ccc(N[C@H]5CC[C@H](N(C6CC6)C6CC6)CC5)c([N+](=O)[O-])c4)c(Oc4cnc5[nH]ccc5c4)c3)CC2)=C(c2ccc(Cl)cc2)C1` [Example 100, Trans-4-(4-{[2-(4-chlorophenyl)-4,4-dimethylcyclohex-1-en-1-yl]methyl}piperazin-1-yl)-N-[(4-{[4-(dicyclopropylamino)cyclohexyl]amino}-3-nitrophenyl)sulfonyl]-2-(1H-pyrrolo[2,3-b]pyridin-5-yloxy)benzamide], 137 nM; that for `CC1(C)CCC(CN2CCN(c3ccc(C(=O)NS(=O)(=O)c4cc(F)c(F)c(OCC5(F)CCOCC5)c4)c(Oc4cnc5[nH]ccc5c4)c3)CC2)=C(c2ccc(Cl)cc2)C1` [Example 313, 4-(4-{[2-(4-chlorophenyl)-4,4-dimethylcyclohex-1-en-1-yl]methyl}piperazin-1-yl)-N-({3,4-difluoro-5-[(4-fluorotetrahydro-2H-pyran-4-yl)methoxy]phenyl}sulfonyl)-2-(1H-pyrrolo[2,3-b]pyridin-5-yloxy)benzamide], over 1000 nM.
On to `COC1(Cc2ccccc2-c2ccc(Cl)cc2)CCN(c2ccc(C(=O)NS(=O)(=O)c3ccc(NCC4CCOCC4)c([N+](=O)[O-])c3)c(Oc3cnc4[nH]ccc4c3)c2)CC1` [Example 264, 4-{4-[(4′-chlorobiphenyl-2-yl)methyl]-4-methoxypiperidin-1-yl}-N-({3-nitro-4-[(tetrahydro-2H-pyran-4-ylmethyl)amino]phenyl}sulfonyl)-2-(1H-pyrrolo[2,3-b]pyridin-5-yloxy)benzamide], for which the EC50 turned out to be 689 nM.
Next, `CC1(C)CCC(CN2CCN(c3ccc(C(=O)NS(=O)(=O)c4ccc(N[C@@H]5CCN(C(CF)CF)C5)c(S(=O)(=O)C(F)(F)F)c4)c(Oc4cnc5[nH]ccc5c4)c3)CC2)=C(c2ccc(Cl)cc2)C1` [Example 225, 4-(4-{[2-(4-chlorophenyl)-4,4-dimethylcyclohex-1-en-1-yl]methyl}piperazin-1-yl)-N-[(4-{[(3R)-1-(1,3-difluoropropan-2-yl)pyrrolidin-3-yl]amino}-3-[(trifluoromethyl)sulfonyl]phenyl)sulfonyl]-2-(1H-pyrrolo[2,3-b]pyridin-5-yloxy)benzamide]: 560 nM; `CC1(C)CCC(CN2CCN(c3ccc(C(=O)NS(=O)(=O)c4cnc(OC[C@H]5C[C@H]6C[C@@H]5C[C@@]6(C)O)c(Cl)c4)c(Oc4cnc5[nH]ccc5c4)c3)CC2)=C(c2ccc(Cl)cc2)C1` [Example 343, N-[(5-chloro-6-{[(1R,2S,4R,5R)-5-hydroxy-5-methylbicyclo[2.2.1]hept-2-yl]methoxy}pyridin-3-yl)sulfonyl]-4-(4-{[2-(4-chlorophenyl)-4,4-dimethylcyclohex-1-en-1-yl]methyl}piperazin-1-yl)-2-(1H-pyrrolo[2,3-b]pyridin-5-yloxy)benzamide]: 127 nM; `CC1(C)CCC(CN2CCN(c3ccc(C(=O)NS(=O)(=O)c4ccc(NCCCN(Cc5cncs5)C5CC5)c([N+](=O)[O-])c4)c(Oc4cnc5[nH]ccc5c4)c3)CC2)=C(c2ccc(Cl)cc2)C1` [Example 304, 4-(4-{[2-(4-chlorophenyl)-4,4-dimethylcyclohex-1-en-1-yl]methyl}piperazin-1-yl)-N-{[4-({3-[cyclopropyl(1,3-thiazol-5-ylmethyl)amino]propyl}amino)-3-nitrophenyl]sulfonyl}-2-(1H-pyrrolo[2,3-b]pyridin-5-yloxy)benzamide]: 298 nM.
Take `CC1(C)CC(c2ccc(Cl)cc2)=C(CN2CCN(c3ccc(C(=O)NS(=O)(=O)c4ccc(N[C@H]5CC[C@H](N6CCOCC6)CC5)c(S(=O)(=O)C(F)(F)F)c4)c(Oc4cnc5[nH]ccc5c4)c3)CC2)CO1` [Example 44, Trans-4-(4-{[4-(4-chlorophenyl)-6,6-dimethyl-5,6-dihydro-2H-pyran-3-yl]methyl}piperazin-1-yl)-N-({4-[(4-morpholin-4-ylcyclohexyl)amino]-3-[(trifluoromethyl)sulfonyl]phenyl}sulfonyl)-2-(1H-pyrrolo[2,3-b]pyridin-5-yloxy)benzamide]: the EC50 worked out at 53.1 nM.
On to `CC1(C)CCC(CN2CCN(c3ccc(C(=O)NS(=O)(=O)c4ccc(OC[C@H]5COCCO5)c([N+](=O)[O-])c4)c(Oc4cnc5[nH]ccc5c4)c3)CC2)=C(c2ccc(Cl)cc2)C1` [Example 30, 4-(4-{[2-(4-chlorophenyl)-4,4-dimethylcyclohex-1-en-1-yl]methyl}piperazin-1-yl)-N-({4-[(2R)-1,4-dioxan-2-ylmethoxy]-3-nitrophenyl}sulfonyl)-2-(1H-pyrrolo[2,3-b]pyridin-5-yloxy)benzamide], for which the EC50 was 15.3 nM.
Next, `CC1(C)CCC(CN2CCN(c3ccc(C(=O)NS(=O)(=O)c4ccc(NC5CCN(C6CCC6)CC5)c([N+](=O)[O-])c4)c(Oc4cnc5[nH]ccc5c4)c3)CC2)=C(c2ccc(Cl)cc2)C1` [Example 140, 4-(4-{[2-(4-chlorophenyl)-4,4-dimethylcyclohex-1-en-1-yl]methyl}piperazin-1-yl)-N-({4-[(1-cyclobutylpiperidin-4-yl)amino]-3-nitrophenyl}sulfonyl)-2-(1H-pyrrolo[2,3-b]pyridin-5-yloxy)benzamide]: 12.8 nM.
On to `CO[C@H]1CC[C@H](COc2ccc(S(=O)(=O)NC(=O)c3ccc(N4CCN(CC5=C(c6ccc(Cl)cc6)CC(C)(C)CC5)CC4)cc3Oc3cnc4[nH]ccc4c3)cc2[N+](=O)[O-])CC1` [Example 125, Trans-4-(4-{[2-(4-chlorophenyl)-4,4-dimethylcyclohex-1-en-1-yl]methyl}piperazin-1-yl)-N-({4-[(4-methoxycyclohexyl)methoxy]-3-nitrophenyl}sulfonyl)-2-(1H-pyrrolo[2,3-b]pyridin-5-yloxy)benzamide], for which the EC50 was 8.38 nM.
